Legend:
Assay type in all cases: in vivo
[1] = tested on: Abutilon theophrasti (velvetleaf); assay: Test Example-3: herbicidal effect by a treatment before weeds are generated under upland field conditions; conditions: upland soil treatment before emergence, about 21 days after treatment, score 0-5
Excerpt: (§1) Using the formulation prepared according to the methods described above, the herbicidal effect of the bicyclic pyrazolinone derivative of the invention according to the methods shown in Test Examples below was examined. The herbicidal effect with respect to the test weeds or the phytotoxicity with respect to the test crops was examined according to the following criteria, and evaluated in six stage scores of 0 to 5. A vat having an area of 81 cm^2 and a depth of 3.5 cm was filled with upland soil, then, seeds of Ipomoea purpurea (tall morning glory), Amaranthus viridis (green amaranthus), Abutilon theophrasti (velvetleaf), Chenopodium album (common lambsquarters), and corn were seeded thereto, and the seeds were covered with soil of about 0.5 cm. Next day, a wettable powder or an emulsifiable concentrate of the compound of the present invention prepared according to Formulation Example was diluted, and a spray treatment was uniformly performed on the covered oil so as to be a predetermined dosage. The herbicidal effect with respect to the test weeds and the phytotoxicity with respect to corn about 21 days after the treatment were evaluated according to the evaluation criteria in six stages of 0 to 5 described above.

[2] = tested on: Amaranthus viridis (green amaranthus); assay: as above; conditions: upland soil treatment before emergence, about 21 days after treatment, score 0-5
Excerpt: as §1

[3] = tested on: Chenopodium album (common lambsquarters); assay: as above; conditions: upland soil treatment before emergence, about 21 days after treatment, score 0-5
Excerpt: as §1

[4] = tested on: Ipomoea purpurea (tall morning glory); assay: as above; conditions: upland soil treatment before emergence, about 21 days after treatment, score 0-5
Excerpt: as §1

corn [5] = assay: Test Example-3: phytotoxicity by a treatment before weeds are generated under upland field conditions; conditions: upland soil treatment before emergence, about 21 days after treatment, score 0-5
Excerpt: as §1

[6] = tested on: Abutilon theophrasti (velvetleaf); assay: Test Example-4: herbicidal effect by a foliage treatment after weeds are generated under upland field conditions; conditions: 500 g a.i/ha, foliage treatment after emergence, about 14 days after treatment, score 0-5
Outline: (§2)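 Post-emergence foliar test: wettable powder or emulsifiable concentrate was diluted and sprayed at 4000 L water/ha at a set dosage onto plants raised 14 days from seed in upland soil. Herbicidal effect and corn injury were rated 0–5 roughly 14 days later.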

[7] = tested on: Amaranthus viridis (green amaranthus); assay: as above; conditions: 500 g a.i/ha, foliage treatment after emergence, about 14 days after treatment, score 0-5
Outline: as §2

[8] = tested on: Chenopodium album (common lambsquarters); assay: as above; conditions: 500 g a.i/ha, foliage treatment after emergence, about 14 days after treatment, score 0-5
Outline: as §2

corn [9] = assay: Test Example-4: phytotoxicity by a foliage treatment after weeds are generated under upland field conditions; conditions: 500 g a.i/ha, foliage treatment after emergence, about 14 days after treatment, score 0-5
Outline: as §2

[10] = tested on: Abutilon theophrasti (velvetleaf); assay: Test Example-5: herbicidal effect by a foliage treatment after weeds are generated under upland field conditions; conditions: foliage treatment after emergence, about 14 days after treatment, score 0-5
Excerpt: as §1, with “While watering was suitably performed on there, the seeds were grown for 14 days. A” for “Next day, a”, “foliage portion of the plant” for “covered oil”, “dosage in the amount of water of 4000 L per hectare.” for “dosage.”, “14” for “21”

[11] = tested on: Amaranthus viridis (green amaranthus); assay: as above; conditions: foliage treatment after emergence, about 14 days after treatment, score 0-5
Excerpt: as §1, with “While watering was suitably performed on there, the seeds were grown for 14 days. A” for “Next day, a”, “foliage portion of the plant” for “covered oil”, “dosage in the amount of water of 4000 L per hectare.” for “dosage.”, “14” for “21”

[12] = tested on: Chenopodium album (common lambsquarters); assay: as above; conditions: foliage treatment after emergence, about 14 days after treatment, score 0-5
Excerpt: as §1, with “While watering was suitably performed on there, the seeds were grown for 14 days. A” for “Next day, a”, “foliage portion of the plant” for “covered oil”, “dosage in the amount of water of 4000 L per hectare.” for “dosage.”, “14” for “21”

[13] = tested on: Ipomoea purpurea (tall morning glory); assay: as above; conditions: foliage treatment after emergence, about 14 days after treatment, score 0-5
Excerpt: as §1, with “While watering was suitably performed on there, the seeds were grown for 14 days. A” for “Next day, a”, “foliage portion of the plant” for “covered oil”, “dosage in the amount of water of 4000 L per hectare.” for “dosage.”, “14” for “21”

corn [14] = assay: Test Example-5: phytotoxicity by a foliage treatment after weeds are generated under upland field conditions; conditions: foliage treatment after emergence, about 14 days after treatment, score 0-5
Excerpt: as §1, with “While watering was suitably performed on there, the seeds were grown for 14 days. A” for “Next day, a”, “foliage portion of the plant” for “covered oil”, “dosage in the amount of water of 4000 L per hectare.” for “dosage.”, “14” for “21”

[15] = tested on: Cyperus difformis (smallflower umbrella plant); assay: Test Example-1: herbicidal effect by a treatment before weeds are generated under submerged conditions; conditions: 500 g a.i/ha, pre-emergence treatment, about 15 days after treatment, score 0-5
Outline: (§3)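 This is a pre-emergence test under flooding: compound formulations were applied into the water at a set dosage on the day weeds were sown in puddled paddy soil. Weed control was rated on a six-step 0–5 scale roughly 15 days later.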

[16] = tested on: Echinochloa oryzicola (barnyard grass); assay: as above; conditions: 500 g a.i/ha, pre-emergence treatment, about 15 days after treatment, score 0-5
Outline: as §3

[17] = tested on: Eleocharis acicularis (needle spikerush); assay: as above; conditions: 500 g a.i/ha, pre-emergence treatment, about 15 days after treatment, score 0-5
Outline: as §3

[18] = tested on: Monochoria vaginalis (monochoria); assay: as above; conditions: 500 g a.i/ha, pre-emergence treatment, about 15 days after treatment, score 0-5
Outline: as §3

[19] = tested on: Scirpus juncoides (bulrush); assay: as above; conditions: 500 g a.i/ha, pre-emergence treatment, about 15 days after treatment, score 0-5
Outline: as §3

[20] = tested on: other annual broad leaf weeds (Lindernia procumbens, Rotala indica, Elatine triandra); assay: as above; conditions: 500 g a.i/ha, pre-emergence treatment, about 15 days after treatment, score 0-5
Outline: as §3

[21] = tested on: Amaranthus viridis (green amaranthus); assay: Test Example-2: herbicidal effect by a soil treatment before weeds are generated under upland field conditions; conditions: application amount 500 g a.i/ha, soil spray treatment before weeds are generated, about 21 days after the treatment, score 0 to 5
Outline: (§4)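 Pre-emergence soil treatment: seeds sown in upland soil and covered with about 0.5 cm soil were sprayed the next day with diluted wettable powder or emulsifiable concentrate at a predetermined dosage. Weed control and corn injury were scored on a 0–5 scale about 21 days after treatment.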

[22] = tested on: Chenopodium album (common lambsquarters); assay: as above; conditions: application amount 500 g a.i/ha, soil spray treatment before weeds are generated, about 21 days after the treatment, score 0 to 5
Outline: as §4

corn [23] = assay: Test Example-2: phytotoxicity by a soil treatment before weeds are generated under upland field conditions; conditions: application amount 500 g a.i/ha, soil spray treatment before weeds are generated, about 21 days after the treatment, score 0 to 5
Outline: as §4

SMILES	Herbicidal effect Abutilon theophrast ([1]; 50 g a.i/ha)	Herbicidal effect Amaranthus viridis ([2]; 50 g a.i/ha)	Herbicidal effect Chenopodium album ([3]; 50 g a.i/ha)	Herbicidal effect Ipomoea purpurea ([4]; 50 g a.i/ha)	Phytotoxicity Corn (corn [5]; 50 g a.i/ha)	Herbicidal effect Abutilon theophrast [6]	Herbicidal effect Amaranthus viridis [7]	Herbicidal effect Chenopodium album [8]	Phytotoxicity Corn (corn [9])	Herbicidal effect Abutilon theophrasti ([10]; 12.5 g a.i/ha)	Herbicidal effect Amaranthus viridis ([11]; 12.5 g a.i/ha)	Herbicidal effect Chenopodium album ([12]; 12.5 g a.i/ha)	Herbicidal effect Ipomoea purpurea ([13]; 12.5 g a.i/ha)	Phytotoxicity Corn (corn [14]; 12.5 g a.i/ha)	other results
COC(=O)C=C(COc1cc(-c2c(Cl)n3n(c2=O)CCOCC3)c(F)cc1Cl)OC (mixture of isomers) [Example 2-3]	5 (Herbicidal effect/phytotoxicity was 90% or greater)	5 (Herbicidal effect/phytotoxicity was 90% or greater)	4 (Herbicidal effect/phytotoxicity was 70% to 90%)	2 (Herbicidal effect/phytotoxicity was 30% to 50%)	0 (Herbicidal effect/phytotoxicity was 0% to 10%)	5 (Herbicidal effect/phytotoxicity was 90% or greater)	5 (Herbicidal effect/phytotoxicity was 90% or greater)	5 (Herbicidal effect/phytotoxicity was 90% or greater)	1 (Herbicidal effect/phytotoxicity was 10% to 30%)	5 (Herbicidal effect/phytotoxicity was 90% or greater)	5 (Herbicidal effect/phytotoxicity was 90% or greater)	5 (Herbicidal effect/phytotoxicity was 90% or greater)	5 (Herbicidal effect/phytotoxicity was 90% or greater)	0 (Herbicidal effect/phytotoxicity was 0% to 10%)	
C#CCOc1cc(-c2c(Cl)n3n(c2=O)CCCC3)c(F)cc1Cl [Example 1-238]	5 (Herbicidal effect/phytotoxicity was 90% or greater)	4 (Herbicidal effect/phytotoxicity was 70% to 90%)	5 (Herbicidal effect/phytotoxicity was 90% or greater)	5 (Herbicidal effect/phytotoxicity was 90% or greater)	0 (Herbicidal effect/phytotoxicity was 0% to 10%)	5 (Herbicidal effect/phytotoxicity was 90% or greater)	5 (Herbicidal effect/phytotoxicity was 90% or greater)	5 (Herbicidal effect/phytotoxicity was 90% or greater)	3 (Herbicidal effect/phytotoxicity was 50% to 70%)	5 (Herbicidal effect/phytotoxicity was 90% or greater)	5 (Herbicidal effect/phytotoxicity was 90% or greater)	5 (Herbicidal effect/phytotoxicity was 90% or greater)	5 (Herbicidal effect/phytotoxicity was 90% or greater)	0 (Herbicidal effect/phytotoxicity was 0% to 10%)	Herbicidal effect Cyperus difformis [15]: 5 (Herbicidal effect/phytotoxicity was 90% or greater); Herbicidal effect Echinochloa oryzicola [16]: 5 (Herbicidal effect/phytotoxicity was 90% or greater); Herbicidal effect Eleocharis acicularis [17]: 5 (Herbicidal effect/phytotoxicity was 90% or greater); Herbicidal effect Monochoria vaginalis [18]: 5 (Herbicidal effect/phytotoxicity was 90% or greater); Herbicidal effect Scirpus juncoides [19]: 5 (Herbicidal effect/phytotoxicity was 90% or greater); Herbicidal effect Broadleaf weed [20]: 5 (Herbicidal effect/phytotoxicity was 90% or greater); Herbicidal effect Amaranthus viridis [21]: 5 (Herbicidal effect/phytotoxicity was 90% or greater); Herbicidal effect Chenopodium album [22]: 5 (Herbicidal effect/phytotoxicity was 90% or greater); Phytotoxicity Corn (corn [23]): 1 (Herbicidal effect/phytotoxicity was 10% to 30%); Herbicidal effect Abutilon theophrast ([1]; 100 g a.i/ha): 5 (Herbicidal effect/phytotoxicity was 90% or greater); Herbicidal effect Amaranthus viridis ([2]; 100 g a.i/ha): 5 (Herbicidal effect/phytotoxicity was 90% or greater); Herbicidal effect Chenopodium album ([3]; 100 g a.i/ha): 5 (Herbicidal effect/phytotoxicity was 90% or greater); Herbicidal effect Ipomoea purpurea ([4]; 100 g a.i/ha): 5 (Herbicidal effect/phytotoxicity was 90% or greater); Phytotoxicity Corn (corn [5]; 100 g a.i/ha): 0 (Herbicidal effect/phytotoxicity was 0% to 10%); Herbicidal effect Abutilon theophrasti ([10]; 25 g a.i/ha): 5 (Herbicidal effect/phytotoxicity was 90% or greater); Herbicidal effect Amaranthus viridis ([11]; 25 g a.i/ha): 5 (Herbicidal effect/phytotoxicity was 90% or greater); Herbicidal effect Chenopodium album ([12]; 25 g a.i/ha): 5 (Herbicidal effect/phytotoxicity was 90% or greater); Herbicidal effect Ipomoea purpurea ([13]; 25 g a.i/ha): 5 (Herbicidal effect/phytotoxicity was 90% or greater); Phytotoxicity Corn (corn [14]; 25 g a.i/ha): 0 (Herbicidal effect/phytotoxicity was 0% to 10%)

— US9580444B2, “Polycyclic pyrazolinone derivative and herbicide comprising same as effective component thereof” (priority 2013, dated 2017)
